From patent US12090204B2, “Photodynamic therapy compositions and methods of use thereof” (Pinnacle Biologics, Inc., priority 2020, dated 2024)
“And” between values parts separate entries of the source, which are not always exact repeats. Equal entries are not always repeated.

Columns and labels:
Moraxella catarrhalis = experiment: abraded skin wounds, culture swabs (Example 3); assay type: in vivo, Yorkshire pigs
Excerpt: (§1) On Day −2 of the study, pigs were anesthetized and the skin aseptically prepared. Superficial wounds were created using the tape strip method until punctate bleeding was observed. Also on Day −2, eight wounds per pig were inoculated with one of three bacterial cultures (Haemophilus influenza, Moraxella catarrhalis, or Staphylococcus aureus) at a concentration of 10^7-10^8 CFUs per mL. There were two control sites on each side. […] The wounds were covered, analgesia in the form of buprenorphine (IM, 0.03 mg/kg) was provided, and the animals were recovered from anesthesia.
(§2) On Day 0, culture swabs were collected from each wound prior to dosing. Six wounds per pig were treated with the test article and the laser light treatment. Culture swabs were collected from the test wounds 1 hour following laser light treatment and the animals were recovered from anesthesia. On Day 1, culture swabs were collected from the treated wounds and two wounds per pig were treated a second time with the test article and the laser light treatment. Culture swabs were collected from these test wounds 1 hour following laser light treatment and the animals were recovered from anesthesia. On Day 2, culture swabs were collected from each wound just prior to euthanasia.
(§3) Porfimer sodium administration: to prepare the test article, 75 mg of porfimer sodium was reconstituted with the currently FDA approved method of 31.8 mL of 0.9% sodium chloride, resulting in a stock solution of 2.5 mg/mL. Due to concerns about stability of the solution, the solution was used immediately. A 10 ml solution at a concentration of 0.3 mg/ml (300 mcg/ml), in 0.9% Sodium Chloride Injection (USP) was prepared. 300 μg of porfimer sodium was applied as a saline solution to infected wounds (except controls) and incubated for 30 minutes prior to activation. The sites were exposed to a 630 nm laser light for up to 20 minutes. The light source, a 630PDT laser. Each wound was exposed to 200 J/cm^2.

Staphylococcus aureus = experiment: abraded skin wounds, culture swabs (Example 3); assay type: in vivo, Yorkshire pigs; settings: for Log CFU/site, Sa: sites 2, 7: hydrogel formulation, treated twice (LPT)
Excerpt: as §1, §2, §3

Haemophilus influenza = experiment: abraded skin wounds, culture swabs (Example 3); assay type: in vivo, Yorkshire pigs
Excerpt: as §1, §2, §3

[1] = in vitro human skin permeation, flow through diffusion cell; assay type: in vitro ADME; settings: 24 hours post application
Protocol: A study was completed to show the ability of the formulation to deliver the drug into human skin in an in vitro setting, while retaining the API within the appropriate skin layers.
In this experiment, TEWL for each diffusion cell would was measured and recorded before test article applications. A range of not more than 25 g/m2/h will be acceptable for this study. An automated in-line flow through diffusion cell system (PermeGear Collector FC 33, Version 3.1) was used to assess drug in the skin permeation experiment. Test articles were uniformly dispensed onto the skin tissue surface using a positive displacement pipette, set to deliver 7.8 μL. The study was performed under dark environment and closed to ambient conditions. […] The swabs and the tape strips were analyzed upon request. […] The separated samples were placed in respective pre-weighed labelled vials and weight of tissues were recorded.
Epidermal and dermal samples were processed and homogenized while maintaining a dark environment using the following protocol: 500 μL of homogenizing mixture, Water: Acetonitrile, 1:1 (v/v), was added to the labelled tubes containing the skin samples. […] The following samples were analyzed for drug content: Receptor solution samples at different time-points; skin samples (epidermis and dermis for each cell at the final time point), tape strips and cotton swabs analyzed for mass balance determination. […]

[2] = 300 μg porfimer sodium, 30 minutes, 630 nm 200 J/cm^2

## porfimer sodium
Moraxella catarrhalis; [2]
  antimicrobial activity when applied to inoculated wounds: did not provide antimicrobial activity
Moraxella catarrhalis; sites 3, 8: porfimer sodium in saline, treated once (LPO), day 2, terminal
  Log CFU/site, Mc: 3.1 × 10^6 Log CFU/site and 3.0 × 10^4 Log CFU/site
Staphylococcus aureus; [2]
  antimicrobial activity when applied to inoculated wounds: did not provide antimicrobial activity
Staphylococcus aureus; day 1, 1 h-post 2nd tx
  Log CFU/site, Sa: 2.1 × 10^5 Log CFU/site and 2.2 × 10^4 Log CFU/site
Staphylococcus aureus; day 2, terminal
  Log CFU/site, Sa: 1.2 × 10^5 Log CFU/site and 1.3 × 10^6 Log CFU/site
Haemophilus influenza; [2]
  antimicrobial activity when applied to inoculated wounds: did not provide antimicrobial activity
Haemophilus influenza; sites 1, 6: hydrogel formulation, treated once (LPO), day 1, 24 h post tx
  Log CFU/site, Hi: 3.0 × 10^5 Log CFU/site
Haemophilus influenza; sites 2, 7: hydrogel formulation, treated twice (LPT), day 0, 1 h-post tx
  Log CFU/site, Hi: 1.3 × 10^4 Log CFU/site and 1.2 × 10^2 Log CFU/site
Haemophilus influenza; sites 2, 7: hydrogel formulation, treated twice (LPT), day 1, pre 2nd tx
  Log CFU/site, Hi: 2.0 × 10^4 Log CFU/site and 2.3 × 10^3 Log CFU/site
[1]
  skin layer where porfimer sodium permeation was found: predominantly found in the epidermal layers of the skin
